Test [1] addresses human calcitonin receptor (CTR) and RAMP3 (AMY3) (Homo sapiens, UniProt O60896+P30988). Kind of test: Amylin Receptor cAMP Assay II. The format is cell-based. Particulars: COS-7/AMY3 cells, cAMP dynamic 2 kit, read-out: Amylin Receptor cAMP Stimulation Activity: EC50. The essentials: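 COS-7 cells stably co-expressing human CTR and RAMP3 (AMY3) were treated with 4-fold serially diluted compounds at 2000 cells/well in HBSS with 20 mM HEPES, 0.5 mM IBMX and 0.1% casein for 30 min at 37 °C. cAMP was measured by HTRF (cAMP-d2 plus anti-cAMP cryptate, 1 h at RT) with reads at 665/615 nm.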

For test [2], the target named is T1, human calcitonin receptor (CTR) (Homo sapiens, UniProt P30988).
T1 construct: expressed in transfected cells; host or cells: COS-7 (COS7-human CTR Clone #2)
T1 sequence (P30988 25-474): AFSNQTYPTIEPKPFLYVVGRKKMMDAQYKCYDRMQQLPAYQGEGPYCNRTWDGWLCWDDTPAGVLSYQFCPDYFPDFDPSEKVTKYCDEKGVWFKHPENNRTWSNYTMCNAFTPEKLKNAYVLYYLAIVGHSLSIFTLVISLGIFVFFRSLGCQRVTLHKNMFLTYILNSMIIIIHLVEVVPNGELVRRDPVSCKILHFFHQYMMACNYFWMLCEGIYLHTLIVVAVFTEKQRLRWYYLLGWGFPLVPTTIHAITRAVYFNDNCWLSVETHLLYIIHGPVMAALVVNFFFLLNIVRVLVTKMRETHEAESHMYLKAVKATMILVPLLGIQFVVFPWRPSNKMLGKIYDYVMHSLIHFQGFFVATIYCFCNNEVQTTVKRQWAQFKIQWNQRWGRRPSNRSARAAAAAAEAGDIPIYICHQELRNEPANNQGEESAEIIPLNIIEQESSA
The experiment in a line: Calcitonin receptor (CTR) cAMP Assay. The following applies: COS7-human CTR Clone #2 cells, cAMP dynamic 2 kit; read-out: Calcitonin Receptor cAMP Stimulation Activity: EC50. The format is cell-based. The procedure, abridged: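 COS-7 cells stably expressing human CTR (2000 cells/well) treated with 4-fold serially diluted compounds in HBSS/20 mM HEPES/0.5 mM IBMX/0.1% casein, 30 min at 37° C. cAMP quantified by HTRF (cAMP-d2 plus anti-cAMP cryptate, 1 h RT), fluorescence read at 665 and 615 nm.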

Chain of human calcitonin receptor (CTR) and RAMP3 (AMY3) (O60896 24-148, one chain of several): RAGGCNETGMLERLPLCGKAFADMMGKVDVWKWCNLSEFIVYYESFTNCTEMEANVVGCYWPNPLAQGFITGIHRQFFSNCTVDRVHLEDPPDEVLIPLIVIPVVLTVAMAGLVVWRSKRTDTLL

In general, EC50 refers to the concentration at which the effect is half-maximal. Regarding `Cc1nnc(-c2c(CCC3CCOCC3)nc3c(c2-c2ccc4c(ccn4C(C)c4ccc(C#N)c(F)c4)c2)C(=O)N2CCOC[C@@H]32)o1` (stereo partly drawn) [Compound 110, 4-[1-(5-((4aR)-7-(5-methyl-1,3,4-oxadiazol-2-yl)-9-oxo-6-[2-(tetrahydro-2H-pyran-4-yl)ethyl]-1,2,4,4a-tetrahydro-9H-3-oxa-5,9a-diazafluoren-8-yl}-1-indolyl)ethyl]-2-fluorobenzonitrile], the results for the EC50 in test [1] and in test [2] were 62.4 nM and 6.16 nM, respectively.

Regarding `Cc1nnc(-c2c(CCC3CCOCC3)nc3c(c2-c2ccc4c(cnn4C(C)c4ccc(C#N)c(F)c4)c2)C(=O)N2CCOC[C@@H]32)o1` (stereo partly drawn) [Compound 111, 4-[1-(5-((4aR)-7-(5-methyl-1,3,4-oxadiazol-2-yl)-9-oxo-6-[2-(tetrahydro-2H-pyran-4-yl)ethyl]-1,2,4,4a-tetrahydro-9H-3-oxa-5,9a-diazafluoren-8-yl}-1H-indazol-1-yl)ethyl]-2-fluorobenzonitrile], the EC50 in test [1] is 155 nM; in test [2], 11.3 nM.

`Cc1nnc(-c2c(CCC3CCOC(C)(C)C3)nc3c(c2-c2ccc4c(c2)oc(=O)n4Cc2ccc(C#N)c(F)c2)C(=O)N2CCOC[C@@H]32)o1` (stereo partly drawn) [Compound 112, 4-[(6-((4aR,9aR)-6-[2-(2,2-dimethyltetrahydro-2H-pyran-4-yl)ethyl]-7-(5-methyl-1,3,4-oxadiazol-2-yl)-9-oxo-1,2,4,4a-tetrahydro-9H-3-oxa-5,9a-diazafluoren-8-yl}-2-oxo-1,3-benzoxazol-3-yl)methyl]-2-fluorobenzonitrile]: the EC50 in test [1] stood at 124 nM; in test [2], 5.3 nM.

As to `Cc1nnc(-c2c(CCC3CCOCC3)nc3c(c2-c2cc4ccnc(N[C@@H]5CCc6ncccc65)c4s2)c(=O)n2n3CCC2)o1` [Compound 113, 9-{7-[(R)-4-aza-1-indanylamino]-1-thia-6-aza-2-indenyl}-10-(5-methyl-1,3,4-oxadiazol-2-yl)-11-[2-(tetrahydro-2H-pyran-4-yl)ethyl]-2,6,12-triazatricyclo[6.4.0.0^2,6]dodeca-1(12),8,10-trien-7-one], the EC50 in test [1] was 1080 nM; in test [2] it was 95.6 nM.

Consider `Cc1nnc(-c2c(CCC3CCOCC3)nc3c(c2-c2ccc4c(c2)oc(=O)n4C(C)c2ccc(C#N)c(F)c2)c(=O)n2n3CCC2)o1` (centres unmarked) [Compound 114, 2-fluoro-4-[1-(6-(10-(5-methyl-1,3,4-oxadiazol-2-yl)-7-oxo-11-[2-(tetrahydro-2H-pyran-4-yl)ethyl]-2,6,12-triazatricyclo[6.4.0.0^2,6]dodeca-1(12),8,10-trien-9-yl}-2-oxo-1,3-benzoxazol-3-yl)ethyl]benzonitrile], for which the EC50 in test [1] was found to be 135 nM; in test [2], 4.15 nM.

As to `Cc1nnc(-c2c(CCC3C4COCC34)nc3c(c2-c2cc4ccnc(N[C@@H]5CCc6ncccc65)c4s2)S(=O)(=O)CC3C(C)C)o1` (stereo partly drawn) [Compound 115, N—(R)-4-aza-1-indanyl(2-[3-isopropyl-6-(5-methyl-1,3,4-oxadiazol-2-yl)-5-(2-(3-oxabicyclo[3.1.0]hex-6-yl)ethyl}-1,1-dioxo-1λ^6-thia-4-aza-7-indanyl]-1-thia-6-aza-7-indenyl}amine], the EC50 in test [1] was found to be 305 nM; in test [2] it was 14.5 nM.

With `Cc1nnc(-c2c(CCC34CCC(CC3)OC4)nc3c(c2-c2cc4ccnc(N[C@@H]5CCc6ncccc65)c4s2)S(=O)(=O)CC3C(C)C)o1` (stereo partly drawn) [Compound 116, N—(R)-4-aza-1-indanyl(2-[3-isopropyl-6-(5-methyl-1,3,4-oxadiazol-2-yl)-5-(2-(2-oxabicyclo[2.2.2]oct-4-yl)ethyl}-1,1-dioxo-1λ^6-thia-4-aza-7-indanyl]-1-thia-6-aza-7-indenyl}amine], the EC50 in test [1] was 216 nM; in test [2] it was 5.02 nM.

The values above are taken from patent US20250051355A1, “COMPOUNDS, COMPOSITIONS, AND METHODS” (ACONCAGUA BIO, INC., priority 2023, published 2025).
